Experimental data as given in patent publication US20090176817A1, “Method of Treatment of Diarrhea-Predominant Irritable Bowel Syndrome in a Subject” (priority 2005, published 2009).
Marks after values point to notes of the source that are not given here.

Assays:
[1] = Study S.241.1.110: pharmacokinetics in renal impairment, 2 mg TID; conditions: for AUC(0-τ) / Cmax / T½ / Tmax / Cmin: cilansetron 2 mg TID; for AUC(0-τ) / Cmax / T½ / Cmin: mean (%CV); for Tmax: median; for Cmin: Day 6 morning predose value
Experimental: The effect of renal impairment on the pharmacokinetics of cilansetron was evaluated in a study excluding subjects with end-stage renal disease, and utilizing a single-center, open-label, multiple-dose, parallel group study in 13 male and 9 female subjects, aged 33-74 years. […] Healthy subjects were matched to renally-impaired subjects with respect to age, weight, gender, and smoking status. All subjects received oral cilansetron 2 mg TID on Days 1 to 5, and a single dose on the morning of Day 6. Blood samples for measurement of plasma pharmacokinetics of cilansetron and its 4-hydroxy metabolites were collected up to 24 hours following dosing on Day 6, and log-transformed pharmacokinetic parameters for these analytes were statistically compared between study groups. Serum concentrations of unbound cilansetron and its 4-hydroxy metabolites were also measured prior to dosing and at 1 and 1.5 hours postdose on Day 6.

[2] = Study S.241.1.109: interaction with paroxetine 20 mg QD; assay type: in vivo, human; conditions: for AUC(0-τ) / Cmax / Tmax: steady state; for AUC(0-τ): AUC(0-8); for AUC(0-τ) / Cmax: arith. mean; for Tmax: median
Experimental: (§1) In an open-label, randomized, parallel-group study in three groups of 12 healthy, male and female subjects (aged 19 to 45 years), subjects received a 2 mg single dose of cilansetron on Day 1, 2 mg TID on Days 2-13, and a 2 mg single dose on Day 14. […] All morning doses of cilansetron and enzyme inhibitors were administered immediately after a standard breakfast. […] For each treatment group, log-transformed cilansetron AUC(0-τ) and Cmax values on Day 14 (cilansetron+enzyme inhibitor) were compared statistically versus values on Day 7 (cilansetron alone).
FIG. 50, FIG. 51, and FIG. 52 present geometric mean steady-state plasma concentration-time profiles for cilansetron and its 4-hydroxy metabolites in the absence and presence of concomitant paroxetine. […] These increases in exposure are not clinically significant.

[3] = Study S.241.1.110: ex vivo protein binding in serum, healthy and renally impaired; conditions: for Fraction unbound ratio All Renal Groups Combined:Healthy / Fraction unbound ratio Mild:Healthy / Fraction unbound ratio Moderate:Healthy / Fraction unbound ratio Severe:Healthy: ratio (90% CI)
Experimental: The ex vivo protein binding of cilansetron and its 4-hydroxy metabolites has been measured in serum samples collected in a multiple-dose study in healthy and renally impaired male and female subjects, aged 33-74 years. […] Healthy subjects were matched to renally-impaired subjects with respect to age, weight, gender, and smoking status. All subjects received oral cilansetron 2 mg TID on Days 1 to 5, and a single dose on the morning of Day 6.

[4] = Study S.241.1.107: pharmacokinetics in hepatic impairment, 8 mg TID; conditions: for AUC(0-τ): AUC(0-8); for AUC(0-τ) / Cmax / T½: arith. mean (%CV); for Tmax: median
Experimental: The effect of hepatic impairment on the pharmacokinetics of cilansetron was evaluated in a multiple-dose, parallel group study in 14 healthy and 14 moderately to severely hepatically impaired male and female subjects, aged 41-70 years. Impaired subjects (Child-Pugh score 7 to 11) were matched to healthy subjects by age (±2 years), sex, menstrual status, and smoking history status. All subjects received oral cilansetron 8 mg TID on Days 1 to 5, and a single dose on the morning of Day 6. […] Blood samples were also collected at predose on Day 1, and at predose, 1 hour and 1.5 hours postdose on Day 6, for measurement of cilansetron protein binding in serum.

human P-glycoprotein = target: T1, human P-glycoprotein (Homo sapiens, UniProt P08183); assay: Study K.241.6026: in vitro transport by P-glycoprotein in PK 1 LLC MDR cells; assay type: in vitro ADME; conditions: arithmetic mean percentages transported, 3 hours of incubation
T1 construct: expressed in transfected cells; host or cells: PK 1 LLC MDR cells (LLC-PK1 porcine kidney cells expressing human MDR1, by own knowledge)
T1 sequence (P08183 whole entry): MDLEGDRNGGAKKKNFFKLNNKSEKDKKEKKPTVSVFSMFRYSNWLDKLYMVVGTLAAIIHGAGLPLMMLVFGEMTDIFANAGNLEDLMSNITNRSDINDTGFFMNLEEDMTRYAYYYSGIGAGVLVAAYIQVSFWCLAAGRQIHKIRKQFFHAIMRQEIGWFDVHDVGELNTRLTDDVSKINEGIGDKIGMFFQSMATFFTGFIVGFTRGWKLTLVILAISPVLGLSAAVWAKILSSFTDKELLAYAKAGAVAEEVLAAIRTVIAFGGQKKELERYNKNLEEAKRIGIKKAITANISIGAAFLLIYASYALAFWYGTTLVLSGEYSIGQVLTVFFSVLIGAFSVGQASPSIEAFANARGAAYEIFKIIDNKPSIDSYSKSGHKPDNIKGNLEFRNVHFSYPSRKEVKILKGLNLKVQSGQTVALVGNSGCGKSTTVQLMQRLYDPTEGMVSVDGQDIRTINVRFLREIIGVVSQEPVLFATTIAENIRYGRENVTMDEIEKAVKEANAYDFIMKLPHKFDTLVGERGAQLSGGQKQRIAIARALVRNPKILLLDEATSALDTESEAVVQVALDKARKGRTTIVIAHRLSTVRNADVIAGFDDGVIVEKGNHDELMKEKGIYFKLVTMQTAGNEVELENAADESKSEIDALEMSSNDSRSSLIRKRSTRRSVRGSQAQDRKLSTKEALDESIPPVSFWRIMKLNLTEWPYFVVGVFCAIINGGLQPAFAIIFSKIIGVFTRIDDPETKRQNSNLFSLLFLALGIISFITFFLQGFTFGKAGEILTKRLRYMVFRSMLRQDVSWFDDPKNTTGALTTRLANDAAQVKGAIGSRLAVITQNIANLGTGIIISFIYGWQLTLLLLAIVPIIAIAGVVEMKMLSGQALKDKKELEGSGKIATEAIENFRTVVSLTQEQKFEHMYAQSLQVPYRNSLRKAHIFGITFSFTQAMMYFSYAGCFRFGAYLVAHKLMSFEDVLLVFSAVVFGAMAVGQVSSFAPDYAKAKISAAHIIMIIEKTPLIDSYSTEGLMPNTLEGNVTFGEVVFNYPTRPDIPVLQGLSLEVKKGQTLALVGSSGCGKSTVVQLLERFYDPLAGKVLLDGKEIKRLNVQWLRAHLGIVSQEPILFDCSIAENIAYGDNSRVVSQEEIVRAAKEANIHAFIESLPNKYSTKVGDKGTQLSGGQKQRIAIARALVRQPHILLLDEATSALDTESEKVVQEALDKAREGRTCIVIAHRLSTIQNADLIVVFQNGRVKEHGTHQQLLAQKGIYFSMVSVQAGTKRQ

[5] = Study S.241.1.109: interaction with ketoconazole 200 mg BID; assay type: in vivo, human; conditions: for AUC(0-τ) / Cmax / Tmax: steady state; for AUC(0-τ): AUC(0-8); for AUC(0-τ) / Cmax: arith. mean; for Tmax: median
Experimental: as §1

[6] = moderate renal impairment, Day 6
[7] = Cilansetron 2 mg TID + Paroxetine 20 mg QD
[8] = Cilansetron 2 mg TID alone (paroxetine group)
[9] = cilansetron + paroxetine / cilansetron alone, ANOVA of log-transformed data
[10] = geometric LS mean ratio impaired/healthy, cilansetron 8 mg TID oral
[11] = healthy, cilansetron 8 mg TID oral
[12] = hepatically impaired, cilansetron 8 mg TID oral
[13] = Cilansetron 2 mg TID + Ketoconazole 200 mg twice daily
[14] = Cilansetron 2 mg TID alone (ketoconazole group)
[15] = cilansetron + ketoconazole / cilansetron alone, ANOVA of log-transformed data

For `Cc1nccn1CC1CCc2c(c3cccc4c3n2CC[C@@H]4O)C1=O` (stereo partly drawn) [(4S)-hydroxy cilansetron], the “Plasma Conc.” value ([1]; Day 6 1 h, Healthy) was 1.60 (26) ng/mL, the “Plasma Conc.” value ([1]; Day 6 1 h, Mild) was 2.26 (43) ng/mL and the “Plasma Conc.” value ([1]; Day 6 1 h, Moderate) was 2.74 (58) ng/mL. The “Plasma Conc.” value ([1]; Day 6 1 h, Severe) was 8.32 (40) ng/mL, the “AUC(0-τ) ratio Mild/Healthy” value ([1]; Day 6, geometric LS mean ratio (90% CI)) was 119 (85, 168) % and the “AUC(0-τ) ratio Moderate/Healthy” value ([1]; Day 6, ratio (90% CI)) was 174 (120, 251)* %. For the same molecule, the “AUC(0-τ) ratio Renal Combined/Healthy” value ([1]; Day 6, ratio (90% CI)) was 219 (168, 286)* %, the “AUC(0-τ) ratio Severe/Healthy” value ([1]; Day 6, ratio (90% CI)) was 507 (351, 733)* % and the “Cmax ratio Mild/Healthy” value ([1]; Day 6, ratio (90% CI)) was 129 (91, 181) %. For the same molecule, the “Cmax ratio Moderate/Healthy” value ([1]; Day 6, ratio (90% CI)) was 171 (118, 248)* %, the “Cmax ratio Renal Combined/Healthy” value ([1]; Day 6, ratio (90% CI)) was 220 (168, 288)* % and the “Cmax ratio Severe/Healthy” value ([1]; Day 6, ratio (90% CI)) was 485 (335, 702)* %. For the same molecule, the “T½ ratio Mild/Healthy” value ([1]; Day 6, ratio (90% CI)) was 108 (81, 144) %, the “T½ ratio Moderate/Healthy” value ([1]; Day 6, ratio (90% CI)) was 142 (104, 193) % and the “T½ ratio Renal Combined/Healthy” value ([1]; Day 6, ratio (90% CI)) was 142 (113, 177)* %. The “T½ ratio Severe/Healthy” value ([1]; Day 6, ratio (90% CI)) was 186 (136, 254)* %, the “Plasma Conc.” value ([1]; Day 6 […], Healthy) was 1.68 (25) ng/mL and the “Plasma Conc.” value ([1]; Day 6 […], Mild) was 1.91 (35) ng/mL. For the same molecule, the “Plasma Conc.” value ([1]; Day 6 […], Moderate) was 2.98 (56) ng/mL, the “Plasma Conc.” value ([1]; Day 6 […], Severe) was 8.57 (32) ng/mL and the “AUC(0-τ)” value ([1]; healthy subjects, Day 6) was 12.9 (25) ng · h/mL. For the same molecule, the Cmax ([1]; healthy subjects, Day 6) was 2.15 (21) ng/mL, the T½ ([1]; healthy subjects, Day 6) was 8.68 (29) h and the Tmax ([1]; healthy subjects, Day 6) was 2.00 h. For the same molecule, the Cmin ([1]; healthy subjects) was 1.24 (31) ng/mL, the “Mean AUC(0-τ) increase vs healthy” value ([1]; mild impairment) was 19% and the “Mean Cmax increase vs healthy” value ([1]; mild impairment) was 29%. The “AUC(0-τ)” value ([1]; mild renal impairment, Day 6) was 15.3 (25) ng · h/mL, the Cmax ([1]; mild renal impairment, Day 6) was 2.77 (22) ng/mL and the T½ ([1]; mild renal impairment, Day 6) was 9.31 (24) h. The Tmax ([1]; mild renal impairment, Day 6) was 2.00 h, the Cmin ([1]; mild renal impairment) was 1.76 (38) ng/mL and the “Mean AUC(0-τ) increase vs healthy” value ([1]; moderate impairment) was 74%. The “Mean Cmax increase vs healthy” value ([1]; moderate impairment) was 71%, the “AUC(0-τ)” value [1, 6] was 25.3 (64) ng · h/mL and the Cmax [1, 6] was 4.10 (60) ng/mL. For the same molecule, the T½ [1, 6] was 12.4 (28) h, the Tmax [1, 6] was 1.75 h and the Cmin ([1]; moderate renal impairment) was 2.71 (72) ng/mL. The “Mean AUC(0-τ) increase vs healthy” value ([1]; severe impairment) was 407%, the “Mean Cmax increase vs healthy” value ([1]; severe impairment) was 385% and the “AUC(0-τ)” value ([1]; severe renal impairment, Day 6) was 67.0 (35) ng · h/mL. The Cmax ([1]; severe renal impairment, Day 6) was 11.2 (46) ng/mL, the T½ ([1]; severe renal impairment, Day 6) was 16.7 (45) h and the Tmax ([1]; severe renal impairment, Day 6) was 1.40 h. The Cmin ([1]; severe renal impairment) was 7.00 (35) ng/mL, the “AUC(0-τ)” value [2, 7] was 0.00762 µg·h/mL and the Cmax [2, 7] was 1.23 ng/mL. The Tmax [2, 7] was 3.00 h, the “AUC(0-τ)” value [2, 8] was 0.00797 µg·h/mL and the Cmax [2, 8] was 1.22 ng/mL. The Tmax [2, 8] was 3.00 h, the “AUC(0-τ) Ratio (Treatment B/A)” value [2, 9] was 99% and the “Cmax Ratio (Treatment B/A)” value [2, 9] was 105%. The “Fraction unbound ratio All Renal Groups Combined:Healthy” value ([3]; 1 h) was 102 (86, 121) %, the “Fraction unbound ratio Mild:Healthy” value ([3]; 1 h) was 81 (65, 101) % and the “Fraction unbound ratio Moderate:Healthy” value ([3]; 1 h) was 124 (98, 156) %. For the same molecule, the “Fraction unbound ratio Severe:Healthy” value ([3]; 1 h) was 106 (84, 133) %, the “Fraction Unbound in Serum” value ([3]; Day 6 1 h, Healthy) was 53.6 (20) % and the “Fraction Unbound in Serum” value ([3]; Day 6 1 h, Mild) was 42.8 (7) %. For the same molecule, the “Fraction Unbound in Serum” value ([3]; Day 6 1 h, Moderate) was 69.3 (45) %, the “Fraction Unbound in Serum” value ([3]; Day 6 1 h, Severe) was 56.1 (15) % and the “Fraction Unbound in Serum” value ([3]; Day 6 […], Healthy) was 58.0 (21) %. For the same molecule, the “Fraction Unbound in Serum” value ([3]; Day 6 […], Mild) was 46.3 (11) %, the “Fraction Unbound in Serum” value ([3]; Day 6 […], Moderate) was 57.4 (28) % and the “Fraction Unbound in Serum” value ([3]; Day 6 […], Severe) was 42.4 (9) %. For the same molecule, the “Fraction Unbound in Serum” value ([3]; Day 6 predose, Healthy) was 51.9 (24) %, the “Fraction Unbound in Serum” value ([3]; Day 6 predose, Mild) was 48.9 (40) % and the “Fraction Unbound in Serum” value ([3]; Day 6 predose, Moderate) was 54.0 (26) %. The “Fraction Unbound in Serum” value ([3]; Day 6 predose, Severe) was 51.4 (30) %, the “Fraction unbound ratio All Renal Groups Combined:Healthy” value ([3]; […]) was 84 (72, 99) % and the “Fraction unbound ratio Mild:Healthy” value ([3]; […]) was 81 (67, 99) %. For the same molecule, the “Fraction unbound ratio Moderate:Healthy” value ([3]; […]) was 99 (80, 123) %, the “Fraction unbound ratio Severe:Healthy” value ([3]; […]) was 75 (60, 93)^b % and the “Protein bound on average” value ([3]; healthy subjects) was 42.0-48.1%. For the same molecule, the “Fraction unbound ratio All Renal Groups Combined:Healthy” value ([3]; predose) was 98 (79, 121) %, the “Fraction unbound ratio Mild:Healthy” value ([3]; predose) was 91 (69, 121) % and the “Fraction unbound ratio Moderate:Healthy” value ([3]; predose) was 104 (77, 140) %. For the same molecule, the “Fraction unbound ratio Severe:Healthy” value ([3]; predose) was 98 (73, 133) %, the Plasma protein bound ([3]; therapeutic concentration range) was 42-48% and the “AUC(0-τ) Ratio” value [4, 10] was 0.68. For the same molecule, the “Cmax Ratio” value [4, 10] was 0.64, the “AUC(0-τ), Geom. LS Mean” value [4, 11] was 0.0425 µg·h/mL and the “Cmax, Geom. LS Mean” value [4, 11] was 6.89 ng/mL. For the same molecule, the “AUC(0-τ)” value [4, 11] was 47.9 (36) ng · h/mL, the Cmax [4, 11] was 7.57 (33) ng/mL and the T½ [4, 11] was 7.65 (17) h. For the same molecule, the Tmax [4, 11] was 3.00 h, the “AUC(0-τ), Geom. LS Mean” value [4, 12] was 0.0291 µg·h/mL and the “Cmax, Geom. LS Mean” value [4, 12] was 4.39 ng/mL. The “AUC(0-τ)” value [4, 12] was 33.8 (57) ng · h/mL, the Cmax [4, 12] was 5.17 (59) ng/mL and the T½ [4, 12] was 9.41 (30) h. For the same molecule, the Tmax [4, 12] was 3.00 h, the “AUC(0-τ) decrease with hepatic impairment” value ([4]; in vivo) was 32% and the “Cmax decrease with hepatic impairment” value ([4]; in vivo) was 36%. The “Membrane Passage” value (human P-glycoprotein) was 13%, the “AUC(0-τ)” value [5, 13] was 0.0135 µg·h/mL and the Cmax [5, 13] was 2.29 ng/mL. The Tmax [5, 13] was 2.00 h, the “AUC(0-τ)” value [5, 14] was 0.00842 µg·h/mL and the Cmax [5, 14] was 1.35 ng/mL. The Tmax [5, 14] was 3.00 h, the “AUC(0-τ) Ratio (Treatment B/A)” value [5, 15] was 163% and the “Cmax Ratio (Treatment B/A)” value [5, 15] was 174%.
